According to ChEMBL document CHEMBL3797202, “Novel Oxindole Sulfonamides and Sulfamides: EPZ031686, the First Orally Bioavailable Small Molecule SMYD3 Inhibitor” (ACS Med Chem Lett, 2016):

Assays:
[1] = molecular target: T1, Histone-lysine N-methyltransferase EHMT1 (Homo sapiens) (UniProt Q9H9B1); experiment: Inhibition of EHMT1 (unknown origin) at 10 uM relative to control
T1 sequence (whole entry): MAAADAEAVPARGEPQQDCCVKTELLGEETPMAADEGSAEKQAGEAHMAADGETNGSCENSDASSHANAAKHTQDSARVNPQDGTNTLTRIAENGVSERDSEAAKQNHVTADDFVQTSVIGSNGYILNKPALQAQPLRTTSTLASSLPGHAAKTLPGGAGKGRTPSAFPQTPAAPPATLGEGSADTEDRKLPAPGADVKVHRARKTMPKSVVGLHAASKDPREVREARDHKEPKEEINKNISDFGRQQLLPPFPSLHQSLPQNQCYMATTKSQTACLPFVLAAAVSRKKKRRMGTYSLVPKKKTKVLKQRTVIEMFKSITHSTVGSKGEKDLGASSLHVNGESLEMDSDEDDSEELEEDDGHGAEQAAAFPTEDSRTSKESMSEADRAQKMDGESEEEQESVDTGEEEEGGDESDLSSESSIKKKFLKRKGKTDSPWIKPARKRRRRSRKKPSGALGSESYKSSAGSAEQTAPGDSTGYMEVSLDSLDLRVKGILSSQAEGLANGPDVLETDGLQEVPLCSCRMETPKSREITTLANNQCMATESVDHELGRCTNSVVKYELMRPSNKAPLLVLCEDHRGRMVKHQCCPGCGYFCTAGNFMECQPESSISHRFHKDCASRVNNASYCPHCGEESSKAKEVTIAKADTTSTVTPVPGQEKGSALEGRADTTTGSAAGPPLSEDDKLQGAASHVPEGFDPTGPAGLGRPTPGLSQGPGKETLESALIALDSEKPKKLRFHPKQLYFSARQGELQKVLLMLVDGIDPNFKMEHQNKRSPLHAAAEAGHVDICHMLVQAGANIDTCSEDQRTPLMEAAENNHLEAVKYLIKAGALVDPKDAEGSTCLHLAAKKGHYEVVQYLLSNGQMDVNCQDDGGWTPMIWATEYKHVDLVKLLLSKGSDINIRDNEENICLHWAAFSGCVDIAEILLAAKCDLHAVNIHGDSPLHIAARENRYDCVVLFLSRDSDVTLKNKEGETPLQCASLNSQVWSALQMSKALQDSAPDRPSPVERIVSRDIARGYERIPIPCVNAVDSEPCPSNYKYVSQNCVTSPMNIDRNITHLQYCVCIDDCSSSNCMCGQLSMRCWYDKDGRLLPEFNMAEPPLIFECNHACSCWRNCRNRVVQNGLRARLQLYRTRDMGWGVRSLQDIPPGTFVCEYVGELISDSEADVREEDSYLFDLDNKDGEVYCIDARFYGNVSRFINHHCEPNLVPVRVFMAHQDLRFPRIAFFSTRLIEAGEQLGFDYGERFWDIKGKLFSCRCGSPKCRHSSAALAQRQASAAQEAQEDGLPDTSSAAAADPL

[2] = molecular target: Protein arginine N-methyltransferase 3 (Homo sapiens) (UniProt O60678); experiment: Inhibition of PRMT3 (unknown origin) at 10 uM relative to control
[3] = molecular target: T2, Histone-lysine N-methyltransferase SUV39H1 (Homo sapiens) (UniProt O43463); experiment: Inhibition of SUV39H1 (unknown origin) at 10 uM relative to control
T2 sequence (whole entry): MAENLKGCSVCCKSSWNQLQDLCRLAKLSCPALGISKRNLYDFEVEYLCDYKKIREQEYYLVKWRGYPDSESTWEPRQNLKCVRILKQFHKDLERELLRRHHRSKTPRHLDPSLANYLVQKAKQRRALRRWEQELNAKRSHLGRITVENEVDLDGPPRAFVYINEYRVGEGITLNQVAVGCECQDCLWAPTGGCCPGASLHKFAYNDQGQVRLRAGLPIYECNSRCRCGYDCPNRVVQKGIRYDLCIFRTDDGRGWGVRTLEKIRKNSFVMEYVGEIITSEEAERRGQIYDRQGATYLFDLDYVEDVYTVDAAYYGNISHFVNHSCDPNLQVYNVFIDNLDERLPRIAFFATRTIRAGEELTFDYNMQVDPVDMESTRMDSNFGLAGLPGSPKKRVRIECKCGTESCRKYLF

Measured: inhibition

Sequence of Protein arginine N-methyltransferase 3 (Homo sapiens) (O60678 2-531 limits assumed): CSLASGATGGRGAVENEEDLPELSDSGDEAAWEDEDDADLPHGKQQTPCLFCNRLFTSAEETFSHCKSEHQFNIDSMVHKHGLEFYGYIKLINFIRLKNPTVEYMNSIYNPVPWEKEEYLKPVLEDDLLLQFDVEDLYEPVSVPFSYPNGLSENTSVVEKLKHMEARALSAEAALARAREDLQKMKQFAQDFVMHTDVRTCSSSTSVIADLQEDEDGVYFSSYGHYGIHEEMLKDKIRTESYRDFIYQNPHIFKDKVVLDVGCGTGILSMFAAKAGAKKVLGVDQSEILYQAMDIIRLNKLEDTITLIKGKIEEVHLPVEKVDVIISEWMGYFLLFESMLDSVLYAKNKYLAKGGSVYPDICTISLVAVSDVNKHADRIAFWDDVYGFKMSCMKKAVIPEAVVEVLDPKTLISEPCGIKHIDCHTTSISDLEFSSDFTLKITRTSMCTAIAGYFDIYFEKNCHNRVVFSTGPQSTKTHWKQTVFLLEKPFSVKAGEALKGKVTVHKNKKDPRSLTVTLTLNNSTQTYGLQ

O=C1Cc2cc(C(=O)N[C@H]3C[C@H]4CC[C@@H](C3)N4S(=O)(=O)CC3CCN(CCCC(F)(F)F)CC3)c(Cl)cc2N1
< 30%: all assays above

O=C1Cc2cc(C(=O)N[C@H]3C[C@H]4CC[C@@H](C3)N4S(=O)(=O)N3CCC(NCc4ccccc4)CC3)c(Cl)cc2N1
< 30%: all assays above
